Test results as given in patent publication US11466044B2 (WAYNE STATE UNIVERSITY, priority 2017, dated 2022).
Converted amounts (≈) assume the structure as drawn. Counter-ions that a name gives are not always drawn. Like-named read-outs stand apart in the source and are kept apart here.

Legend:
[1] = tested on: Klebsiella pneumonia AG215; experiment: MIC by broth microdilution, Klebsiella pneumonia; format: cell-based; conditions: Klebsiella pneumoniae; strain AG215 Klebsiella pneumonia; read-out: MIC AG215 K. pneumon
[2] = tested on: Enterobacter cloacae AG290; experiment: MIC by broth microdilution, Enterobacter cloacae; format: cell-based; conditions: strain AG290 Enterobacter cloacae; read-out: MIC AG290 E. cloacae
E coli wild type = experiment: MIC by broth microdilution, wild type E coli; format: cell-based; conditions: for MIC: Escherichia coli
[3] = tested on: E coli carrying specific resistance determinants; experiment: MIC by broth microdilution, E coli carrying specific resistance determinants; format: cell-based; conditions: Escherichia coli
[4] = tested on: Acinetobacter baumannii pittii AG225; experiment: MIC by broth microdilution, Acinetobacter baumannii; format: cell-based; conditions: strain AG225 Acinetobacter baumannii pittii
[5] = tested on: mitochondrial ribosome (human chimeric); format: biochemical; conditions: for IC50: mitochondrial, read-out: IC50 Mit
Description: (§1) The antiribosomal activity of these compounds was investigated with cell-free translation assays using both wild type bacterial ribosomes and hybrid ribosomes carrying eukaryotic decoding A sites enabling the prediction of selectivity.

[6] = tested on: cytosolic ribosome (human chimeric); format: biochemical; conditions: for IC50: cytosolic, read-out: IC50 Cyt
Description: as §1

[7] = tested on: wild type bacterial ribosomes; experiment: in-vitro translation assay, bacterial ribosomes; format: biochemical; conditions: for IC50: bacterial ribosome, read-out: IC50 Bac
Description: as §1

[8] = tested on: A1555G mutant mitochondrial ribosome (human chimeric); experiment: in-vitro translation assay, human chimeric ribosomes, A1555G mutant mitochondrial decoding site; format: biochemical; conditions: Table 3 (Example 3)
Description: as §1

P aeruginosa = experiment: MIC by broth microdilution, P aeruginosa isolates; format: cell-based, Pseudomonas aeruginosa; conditions: for MIC: strain AG220 Pseudomonas aeruginosa ATCC27853, read-out: MIC AG220 P. aerugin
N. gonorrhoeae = experiment: Disk diffusion, N. gonorrhoeae; format: cell-based; conditions: Neisseria gonorrhoeae
M. abscessus = experiment: MIC by broth microdilution, M. abscessus; format: cell-based; conditions: Mycobacteroides abscessus
M. smegmatis SZ380 = experiment: MIC by broth microdilution, M. smegmatis; conditions: for MIC: Mycolicibacterium smegmatis
MRSA = experiment: MIC by broth microdilution, MRSA isolates; format: cell-based; conditions: for MIC: Staphylococcus aureus, MRSA, Table 1 (Example 3)
[9] = ATCC25922, strain AG212 E. coli (ATCC25922), read-out: MIC AG212 E. coli

CCCNC1C(OC2C(N)CC(N)C(O)C2OC2OC(CO)C(OC3OC(CN)C(O)C(O)C3N)C2O)OC(CO)C(O)C1O (stereo not drawn) [Compound 128, 2′-N-Propyl-paromomycin acetate salt]
MIC [1]: 2 µg/mL | MIC [2]: 2 µg/mL | MIC (E coli wild type; [9]): 4 µg/mL | MIC (E coli wild type; WT, Table 4 (Example 3), read-out: MIC E. coli WT): 2 µg/mL | MIC (E coli wild type; WT, Table 5 (Example 3), read-out: MIC E. coli WT): 2 µg/mL | MIC (E coli wild type; clinical isolate AG001, Table 1 (Example 3), read-out: MIC E coli AG001): 16 µg/mL | MIC (E coli wild type; clinical isolate AG003, Table 1 (Example 3), read-out: MIC E coli AG003): 16 µg/mL | MIC (E coli wild type; clinical isolate AG055, Table 1 (Example 3), read-out: MIC E coli AG055): 16 µg/mL | MIC ([3]; read-out: MIC E. coli AAC(2′) AG106): 2 µg/mL | MIC ([3]; read-out: MIC E. coli AAC(2′) pH434): 4 µg/mL | MIC ([3]; read-out: MIC E. coli pGB2armA armA): 4 to 8 µg/mL | MIC ([3]; read-out: MIC E. coli pH434 AAC(2′)-Ib): 4 µg/mL | MIC [4]: 4 µg/mL | Selectivity for Binding to the Bacterial Ribosome over the Mitochondrial Ribosome ([5]; Table 3 (Example 3)): 3066 | IC50 ([5]; Table 4 (Example 3)): 153 µM | Selectivity for Binding to the Bacterial Ribosome over the Cytosolic Ribosome ([6]; Table 3 (Example 3)): 425 | IC50 ([6]; Table 4 (Example 3)): 21 µM | IC50 ([7]; Table 4 (Example 3)): 0.05 µM | selectivity for the bacterial ribosome over mitochondrial (wild type, A1555G mutant) and cytosolic ribosomes, in words ([7]; compared with the parent compound): increased selectivity for the bacterial ribosome | Selectivity for Binding to the Bacterial Ribosome over the Mutant Mitochondrial Ribosome [8]: 763 | MIC (P aeruginosa): > 64 µg/mL | zone of inhibition at 25 nmol/disc (N. gonorrhoeae): 11 mm | MIC (M. abscessus; ATCC19977, ATCC 19977 WT, Table 5 (Example 3), read-out: MIC M. abscessus ATCC 19977 WT): 32 µg/mL | MIC (M. abscessus; read-out: MIC M. abscessus engineered Δeis2): 1 µg/mL | MIC (M. abscessus; ATCC, Table 4 (Example 3), read-out: MIC M. abscessus ATCC): 32 µg/mL | MIC (M. abscessus; Clin. Isol., Table 4 (Example 3), read-out: MIC M. abscessus Clin. Isol.): 64 µg/mL | MIC (M. smegmatis SZ380; SZ380, read-out: MIC M. smegmatis SZ380 WT, SZ380 WT, Table 5 (Example 3)): 2 µg/mL | MIC (M. smegmatis SZ380; SZ380, read-out: MIC SZ380 M. smegmatis, strain SZ380 Mycobacterium smegmatis): 2 µg/mL | MIC (MRSA; clinical isolate AG038, read-out: MIC MRSA AG038): 8 to 16 µg/mL | MIC (MRSA; clinical isolate AG039, read-out: MIC MRSA AG039): > 128 µg/mL | MIC (MRSA; clinical isolate AG042, read-out: MIC MRSA AG042): > 128 µg/mL | MIC (MRSA; clinical isolate AG044, read-out: MIC MRSA AG044): 4 µg/mL

CC1CC(O)C2O[C@H](O[C@@H]3C(N)C[C@@H](N)C(O)[C@H]3O[C@@H]3O[C@H](CO)[C@H](O[C@H]4O[C@@H](CN)[C@@H](O)C(O)C4N)C3O)C(N)[C@@H](O)[C@@H]2O1 (stereo partly drawn) [Compound 125, 4-O-(2′-Amino-4′,8′-anhydro-2′,7′,9′-trideoxy-D-threo-α-D-gluco-nonapyranosyl)-5-O-[3-O-(2,6-diamino-2,6-dideoxy-β-L-idopyranosyl)-β-D-ribofuranosyl]-2-deoxystreptamine.5AcOH]
MIC [1]: 2 µg/mL (≈ 3.05 µM) | MIC [2]: 2 µg/mL (≈ 3.05 µM) | MIC50 E coli BM13 (AG06) wt (E coli wild type; BM13 (AG06) wt, Table 2A (Example 2)): 2 µg/mL (≈ 3.05 µM) | MIC (E coli wild type; [9]): 2 µg/mL (≈ 3.05 µM) | MIC WT (E coli wild type; WT, Table 3 (Example 2)): 1 to 2 µg/mL | MIC50 E coli pH430 WT (E coli wild type; pH430 WT, Table 2B (Example 2)): 1-2 μg/ml | MIC50 E coli AG01 (E coli wild type; strain AG01, Table 1 (Example 2)): 8 µg/mL (≈ 12.2 µM) | MIC50 E coli AG03 (E coli wild type; strain AG03, Table 1 (Example 2)): 8 µg/mL (≈ 12.2 µM) | MIC50 E coli AG55 (E coli wild type; strain AG55, Table 1 (Example 2)): 8 µg/mL (≈ 12.2 µM) | MIC50 ([3]; read-out: MIC50 E coli AG07 AAC(3), AG07 AAC(3), Table 2A (Example 2)): 8 µg/mL (≈ 12.2 µM) | MIC50 ([3]; read-out: MIC50 E coli AG09 AAC(6′), AG09 AAC(6′), Table 2A (Example 2)): 4 µg/mL (≈ 6.1 µM) | MIC50 ([3]; read-out: MIC50 E coli AG036 ANT(4′,4″), AG036 ANT(4′,4″), Table 2A (Example 2)): 2 to 4 µg/mL (≈ 3.05 to 6.1 µM) | MIC50 ([3]; read-out: MIC50 E coli AG036 ANT(4′,4″), AG036 ANT(4′,4″), Table 2B (Example 2)): 0.5 µg/mL (≈ 0.763 µM) | MIC50 ([3]; read-out: MIC50 E coli AG037 APH(3′)-III, AG037 APH(3′)-III, Table 2B (Example 2)): 16 µg/mL (≈ 24.4 µM) | MIC50 ([3]; read-out: MIC50 E coli AG037 APH(3′,5″), AG037 APH(3′,5″), Table 2A (Example 2)): 32 to 64 µg/mL (≈ 48.8 to 97.6 µM) | MIC50 ([3]; read-out: MIC50 E coli AG103 ArmA, AG103 ArmA, Table 2A (Example 2)): 4 µg/mL (≈ 6.1 µM) | MIC50 ([3]; read-out: MIC50 E coli AG103 armA, AG103 armA, Table 2B (Example 2)): 1 to 2 µg/mL (≈ 1.53 to 3.05 µM) | MIC50 ([3]; read-out: MIC50 E coli AG105 AAC(2′), AG105 AAC(2′), Table 2A (Example 2)): 2 to 4 µg/mL (≈ 3.05 to 6.1 µM) | MIC50 ([3]; read-out: MIC50 E coli pH414 AAC(6′)-I, pH414 AAC(6′)-I, Table 2B (Example 2)): 1 µg/mL (≈ 1.53 µM) | MIC50 ([3]; read-out: MIC50 E coli pH415 AAC(6′)-II, pH415 AAC(6′)-II, Table 2B (Example 2)): 1 to 2 µg/mL (≈ 1.53 to 3.05 µM) | MIC50 ([3]; read-out: MIC50 E coli pH421 APH(3′)-I, pH421 APH(3′)-I, Table 2B (Example 2)): > 32 µg/mL | MIC50 ([3]; read-out: MIC50 E coli pH422 APH(3′)-II, pH422 APH(3′)-II, Table 2B (Example 2)): 4 µg/mL (≈ 6.1 µM) | MIC50 ([3]; read-out: MIC50 E coli pH423 APH(3)-VI, pH423 APH(3)-VI, Table 2B (Example 2)): 2 µg/mL (≈ 3.05 µM) | MIC50 ([3]; read-out: MIC50 E coli pH432 ANT(4′), pH432 ANT(4′), Table 2B (Example 2)): 1 to 2 µg/mL (≈ 1.53 to 3.05 µM) | MIC ([3]; read-out: MIC AAC(6′)): 1 to 2 µg/mL (≈ 1.53 to 3.05 µM) | MIC ([3]; read-out: MIC ANT(4′)): 0.5 µg/mL (≈ 0.763 µM) | MIC ([3]; read-out: MIC APH(3′)-II): 4 µg/mL (≈ 6.1 µM) | MIC ([3]; read-out: MIC APH(3′)-VI): 2 µg/mL (≈ 3.05 µM) | MIC [4]: 4 µg/mL (≈ 6.1 µM) | IC50 ([5]; Table 3 (Example 2)): 312 µM | IC50 ([6]; Table 3 (Example 2)): 30 µM | IC50 ([7]; Table 3 (Example 2)): 0.04 µM | MIC50 P aeruginosa AG31 (P aeruginosa; strain AG31, Table 1 (Example 2)): 32 µg/mL (≈ 48.8 µM) | MIC50 P aeruginosa AG32 (P aeruginosa; strain AG32, Table 1 (Example 2)): 16 to 32 µg/mL | MIC50 P aeruginosa AG33 (P aeruginosa; strain AG33, Table 1 (Example 2)): >128 µg/mL | MIC50 P aeruginosa AG86 (P aeruginosa; strain AG86, Table 1 (Example 2)): >128 µg/mL | MIC (P aeruginosa): 8 µg/mL (≈ 12.2 µM) | zone of inhibition at 25 nmol/disc (N. gonorrhoeae): 9 mm | MIC SZ380 M. smegmatis (M. smegmatis SZ380; strain SZ380 Mycobacterium smegmatis): 0.5 µg/mL (≈ 0.763 µM) | MIC50 MRSA AG38 (MRSA; strain AG38, Table 1 (Example 2)): 8 to 16 µg/mL | MIC50 MRSA AG39 (MRSA; strain AG39, Table 1 (Example 2)): 8 µg/mL (≈ 12.2 µM) | MIC50 MRSA AG42 (MRSA; strain AG42, Table 1 (Example 2)): 8 µg/mL (≈ 12.2 µM) | MIC50 MRSA AG44 (MRSA; strain AG44, Table 1 (Example 2)): 4 µg/mL (≈ 6.1 µM)
